Where two headings read alike, the source gives them in different places. One block for each molecule: values may come before it.
Columns and labels:
[1] = Multiple particle tracking of pyrene/stabilizer nanoparticles in CVM
Procedure: Prior to quantifying mobility of the produced pyrene nanoparticles, their spatial distribution in the mucus sample was assessed by microscopy at low magnifications (10×, 40×).
CVM was collected by inserting a Softcup® menstrual collection cup into the vaginal tract as described by the product literature for between 30 seconds and 2 minutes. After removal the CVM was then collected from the Softcup® by gentle centrifugation at ˜30×G to ˜120×G in a 50 mL centrifuge tube. In Example 1, CVM was used undiluted and fresh (stored for no longer than 7 days under refrigerated conditions). Barrier and transport of all CVM samples used in Example 1 were verified with negative (200 nm carboxylated polystyrene particles) and positive (200 nm polystyrene particles modified with PEG 5K) controls. In Example 2, CVM was lyophilized and reconstituted. In Example 2, mucus was frozen at −50° C. and then lyophilized to dryness. Samples were then stored at −50° C. Before use, the mucus was reconstituted by grinding the solid into a fine powder using a mortar and pestle followed by water addition to a final volume equal to the original volume to 2 times the original volume. The reconstituted mucus was then incubated at 4° C. for 12 hours and used as described in Example 2. Barrier and transport of all CVM samples used in Example 2 were verified with negative (200 nm carboxylated polystyrene particles) and positive (F127 coated 200 nm polystyrene particles) controls.

[2] = Multiple particle tracking of pyrene nanoparticles milled with PVAs and other surface-altering agents in CVM
Procedure: An aqueous dispersion containing pyrene and one of the surface-altering agents listed above was stirred with milling media until particle size was reduced below 500 nm (as measured by dynamic light scattering).
Prior to quantifying mobility of pyrene particles, their spatial distribution in the mucus sample was assessed visually.

[3] = tested on: vascular leakage after intravitreal injection of VEGF; assay: Rabbit VEGF-challenge model (fluorescein angiography); type: in vivo, Dutch belted rabbits; details: day 6; VEGF intravitreal on day 3; 5% axitinib-MPP 50 μL every 4 hours days 1-6, or one intravitreal Avastin on day 1
Text: On day 3, the rabbits received an intravitreal injection of VEGF. On day 6, the rabbits were accessed for leakage via fluorescein angiography.
In this model, Dutch belted rabbits were given an intravitreal injection of VEGF to stimulate vascular growth. Fluorescein angiography was used to determine the degree to which the rabbits developed abnormal vascular and leakage.

[4] = type: in vitro ADME, human
Text: The mobility of LE nanoparticles from the produced nanosuspensions in fresh undiluted human cervicovaginal mucus (CVM) was characterized by dark-field microscopy using a CytoViva® High Resolution Illumination System which allows visualization of fluorescent and non-fluorescent nano-sized objects. […] Mobility of particles in the movies was scored on a scale from 0 to 3 in order of increasing mobility, in a single-blind experiment by independent observers. The scoring criterion is as follows: 0-0.5 immobile; 0.51-1.5 slightly mobile; 1.51-2.5 moderately mobile; and 2.51-3.0 very mobile.

[5] = pyrene nanoparticles milled with the surface-altering agent, in CVM

Molecule: Tween 80
Sample (relative) <Vmean>rel [1]: 0.17 | Sample <Vmean> (ensemble-average velocity) [1]: 0.94 um/s | Sample (relative) <Vmean>rel [2]: 0.17 | Sample <Vmean> [2]: 0.94 um/s

Molecule: CCCCCCCCCCCCCCCC[N+](C)(C)C [CTAB, Cetytrimethylammonium bromide]
Sample <Vmean> (ensemble-average velocity) ([1]; pyrene/stabilizer nanoparticles in CVM): 0.32 um/s | Sample (relative) <Vmean>rel ([1]; pyrene/stabilizer nanoparticles in CVM, relative to negative and positive controls): −0.02 | Sample (relative) <Vmean>rel [2, 5]: −0.02 | Sample <Vmean> [2, 5]: 0.32 um/s

Molecule: Avastin®: positive control, one intravitreal injection; commonly used off-label to treat AMD
retinal vessel growth and leakage (fluorescein angiography) [3]: no change in retinal vasculature

Further lines, results first:

Sample (relative) <Vmean>rel [1]: −0.02 | Sample <Vmean> (ensemble-average velocity) [1]: 0.42 um/s | Sample (relative) <Vmean>rel [2]: −0.02 | Sample <Vmean> [2]: 0.42 um/s
Molecule: Tyloxapol

mobility score in CVM [4]: < 0.50
Molecule: Pluronic F68

mobility score in CVM [4]: 1.51.-2.50
Molecule: Pluronic P123

mobility score in CVM [4]: > 2.51
Molecule: Pluronic F127
